Entries after “also recorded” stand apart in the source; their conditions may differ.
Experiments:
U251MG glioma cells = assay: Cell proliferation, counting in a Neubauer chamber; format: cell-based, human; details: increasing concentrations, several days (FIG. 1A)
Description: (§1) 20,000 U251MG glioblastoma cells or human astrocytic cells (ScienCell) were plated into 96-well plates. After 24 h cells were treated with rhHMGB1 (Sigma Aldrich) or rat recombinant HMGB1 (generously provided by Angelika Bierhaus, Heidelberg, Germany), and TRAIL (for 24 h) or Temozolomide (for 72 h) alone or in combination, respectively. Cell survival was measured by crystal violet staining as described previously (Gdynia et al., 2007). Cell proliferation was assessed by seeding 50,000 U251 MG cells in 6 cm culture plates and treatment with rhHMGB1, followed by counting the cells in a Neubauer chamber at day 0, 2, 4 and 5.

[1] = tested on: NCH421 K glioblastoma stem-cell-like cells; assay: Trypan blue vital stain, counting blue cells in a Neubauer chamber; format: cell-based; details: 80 nM, 24 h, p<0.05
Description: Trypan blue influx into NCH421 K glioblastoma multiforme stem-cell-like cells was […] culture flasks and then incubating them for 10 min with 1:1,000 trypan blue solution. […] Glioblastoma stem-cell-like cell line NCH421K was maintained in BIT (bovine serum albumine, insulin, transferring)-medium (DMEM HAMS F12+1% P/S+1% L-glutamin+10 ml BIT+EGF (20 ng/ml)+BFGF (20 ng/ml)).

pseudo rho zero cells = assay: Survival of pseudo rho zero cells by crystal violet analysis; format: cell-based, human; details: cells devoid of intact mitochondrial DNA
Description: U251 glioblastoma cells and non-immortalized human astrocytic cells (ScienCell, USA) were maintained in DMEM (Life Technologies) containing 10% FCS, 4.5 g/L glucose, glutamine, 110 mg/L sodium pyruvate, and 1% penicillin-streptomycin (Life Technologies) and in astrocyte medium (ScienCell) containing 2% FBS (fetal bovine serum) and 1% penicillin-streptomycin at 37° C. and 5% CO2. For the generation of pseudo rho zero cells (0.0), U251 MG cells were treated with low dose (250 ng/ml) ethidiumbromide for 3 months. The cells were supplemented with DMEM (10% FCS, 1% P/S) containing 50 μg/ml L-pyruvate and 5 mg/ml uridine (King and Attardi, 1989).
as §1

U251MG cells = assay: Megamitochondria formation, COX IV immunofluorescence and electron microscopy; format: cell-based, human
Description: U251MG cells were plated onto 8 well chamber-slides (Nunc, Wiesbaden, Germany) or grown confluently in 6 cm culture dishes containing round glass cover plates. For some samples, the cells were stained with the fluorescent dye MitoTracker Red CMXRos (50 nM, Molecular Probes, Invitrogen, Karlsruhe, Germany) for 30 min at 37° C. 24 h after seeding, the cells were fixed for 15 min with 2% paraformaldehyde solution or pre-cooled 100% methanol (on ice), washed 3× with PBS, permeabilized on ice with PBS containing 0.2% TritonX-100 and 1% fetal calf serum for 5 min and washed again three times with PBS containing 1% or 5% FCS. After blocking with PBS containing 1% or 5% FCS at room temperature for 60 min, permeabilized cells were incubated with monoclonal rabbit fluoro-conjugated anti-COX IV antibody (1:10, 3E11, Alexa Fluor 488 conjugate, Cell Signaling) or monoclonal mouse anti-polyhis-tag antibody (1:1000, R&D Systems) for 30 min at 4° C. and then washed three times with PBS with 1% or 5% FCS. In case the primary antibody was unconjugated to a fluorescent dye, goat anti-mouse or anti-rabbit secondary antibody Alexa Fluor® 488 or […] (1:200, Invitrogen GmbH, Karlsruhe, Germany) together with 1 μg/ml 4′,6-Diamidino-2-phenylindol (DAPI) was added for 30 min at 4° C. in a dark chamber. After washing three times with PBS with 1% or 5% FCS, cells were covered with cover slips. Photomicrographs were taken using a Olympus VANOX-T (AH-2) fluorescence microscope with immersion oil, ne 23=1.518 and the Soft Imaging System AnalysisB software (Leica Microsystems, Wetzlar, Germany) or on a confocal microscope (Leica SP2).
Cells were fixed in situ with 2.3% glutaraldehyde in 50 mM sodium cacodylat (pH 7.2) for 30 min at 4° C., scraped from the plates, collected by low-speed centrifugation at 200×g for 10 min at 4° C. and successively stained with 2% osmium tetroxide and 0.5% uranyl acetate. After dehydration and embedding in Epru the probes were processed for ultrathin section. Micrographs were taken with a Zeiss EM-10A electron microscope at 80 kV. The magnification indicator was routinely controlled by the use of a grating replica.

mitochondrial DNA = assay: Dot blot analysis of mitochondrial DNA; format: cell-based, human; details: 24 h (FIG. 11A)
Description: Subcellular fractionation was performed as described below. The DNA of the resulting mitochondrial suspension was purified by a modified method described in Almeida et al. (Almeida et al., 2006). Briefly, contaminating nuclear DNA was precipitated by lysis of the mitochondria in a buffer of 50 mM glucose, 1.5 mM EDTA, 25 mM Tris-HCl, pH 7.4 with 20% SDS and 3 M K-acetate. After centrifugation (10 min, 4° C., 10.000×g) the supernatant was digested with 20 mg/ml proteinase K for 1 h at 37° C. and mtDNA was extracted twice with phenol-chloroform and one additional time with chloroform, followed by precipitation of mtDNA from the aqueous phase by adding two volumes of isopropanol. The pellet was washed with 80% ethanol at −20° C. After drying the mtDNA was solved in TE-buffer (10 mM Tris-HCl, pH 7.4, 1 mM EDTA, pH 8.0). After treatment of the samples with 100 μg/ml ribonuclease A (RNAse A) for 1 h at 37° C., the phenol-chloroform extraction steps were repeated and mtDNA was precipitated by adding 2 volumes of 100% ethanol and 1/10 volume 5 M NaCl at −20° C. overnight. After a centrifugation step for 20 min at 4° C. with 13,000 rpm and washing the pellet 2× with 80% ethanol, followed by drying, the pellet was solved in ddH2O. The purified DNA was digested overnight with BamHI and loaded on a 0.5% agarose gel. […] Labeling efficiency was determined as described in the kit. […]

## rhHMGB1: recombinant human High Mobility Group B1 protein (Sigma Aldrich)
U251MG glioma cells
  induction of cell death: induction of cell death even at low nanomolar concentrations
  tumor cell proliferation: strong inhibition
[1]
  trypan blue influx versus control: 7±1 fold increase
Pseudo rho zero cells
  rhHMGB1-induced cell death in pseudo rho zero cells: almost completely resistant; also recorded: highly protected
U251MG cells; FIG. 8C
  formation of megamitochondria, COX IV immunofluorescence: generation of extremely enlarged spherical mitochondria
U251MG cells; FIG. 10
  autophagosomes or rupture of the outer cell membrane, electron microscopy: not observed
  number and size of megamitochondria, electron microscopy: increased in a time- and concentration-dependent manner
U251MG cells; after rhHMGB1 treatment
  typical morphological features of apoptosis (membrane blebbing, apoptotic bodies, chromatin condensation): could not be detected
Mitochondrial DNA
  mitochondrial DNA content: substantial and rapid depletion of mtDNA
